This note sets out measurements from PubChem BioAssay (NCI).

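Five concentrations, 48 hours, 96-well plates. Here, GI50 denotes the concentration required for 50% inhibition of growth. TGI is the concentration that stops growth completely.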 A value given as a limit tells only on which side of the number the result lay.

Assay in all cases: NCI-60 cell line screen, 48 h
Experiment [1] deals with 786-0 renal.
Experiment [2] concerns HT29 colon.
The test system of experiment [3] is LOX IMVI melanoma.
Experiment [4] deals with NCI-H226 lung.
Experiment [5] deals with NCI-H460 lung.
Experiment [6] has as its system NCI/ADR-RES ovarian.
The subject of experiment [7] is SF-539 CNS.
The test system of experiment [8] is SK-OV-3 ovarian.
For experiment [9], the system named is SN12C renal.
Experiment [10] relates to UO-31 renal.

For the compound `Cn1c(=O)n(C)c2cc(CNCCNc3ccnc4cc(Cl)ccc34)ccc21`, the GI50 in experiment [1] was 23.1 µM; in experiment [2] it was 21.1 µM; in [3], 14.3 µM; in [4], 72 µM; in experiment [5], 20.9 µM; in experiment [6] it was more than 100 µM. Further, the GI50 in experiment [7] is 14.7 µM; in [8], 72.7 µM; in experiment [9] it was 45.7 µM; in experiment [10], 23.3 µM. Also, the TGI was 71.8 µM in experiment [1]; more than 100 µM in experiment [2]; 30.1 µM in experiment [3]; more than 100 µM in experiment [4]; 60.8 µM in experiment [5]; more than 100 µM in experiment [6]. Besides, the TGI in experiment [7] is 29.4 µM; in experiment [8], more than 100 µM; in experiment [9], more than 100 µM; in experiment [10] it was more than 100 µM.

For `Clc1ccc(/C=C/c2ccc3ccccc3n2)cc1`, the GI50 was 6.33 µM in experiment [1]; 2.62 µM in experiment [2]; 2.51 µM in experiment [3]; 25 µM in experiment [4]; 1.2 µM in experiment [5]; 6.27 µM in experiment [6]. Also, the GI50 is 0.428 µM in [7], 0.519 µM in experiment [8], 2.06 µM in [9] and 4.68 µM in experiment [10]. For the same compound, the TGI in experiment [1] is more than 100 µM; in [2], 8.8 µM; in experiment [3], more than 100 µM; in experiment [4], more than 100 µM; in experiment [5], 15.7 µM; in experiment [6] it was 29.4 µM. Also, the TGI in experiment [7] is 13.8 µM; in experiment [8], more than 21 µM; in [9], more than 100 µM; in experiment [10], more than 100 µM.

For the compound `CCCN(CCC)c1ccc(C=O)c(Cl)c1`, the GI50 in experiment [1] was 20 µM; in [2] it was 18.4 µM; in [3] it was 23.4 µM; in [4] it was 0.152 µM; in [5], 2.19 µM; in experiment [6], 29 µM. Also, the GI50 is 23.8 µM in experiment [7], 24.4 µM in [8], 28.1 µM in experiment [9] and 19.7 µM in experiment [10]. For the same compound, the TGI was 53 µM in experiment [1]; 50.2 µM in [2]; more than 63.7 µM in experiment [3]; 0.322 µM in [4]; 39.3 µM in experiment [5]; more than 100 µM in experiment [6]. Besides, the TGI in [7] is more than 65 µM; in [8] it was more than 100 µM; in experiment [9], more than 100 µM; in experiment [10], more than 83.8 µM.

`COc1cc(F)ccc1-c1cc(Nc2cc(CS(C)(=N)=O)ccn2)ncc1F` (centres undefined): the GI50 in experiment [1] is 0.0446 µM; in experiment [2], 0.0945 µM; in [3], 0.0307 µM; in experiment [4] it was 0.0375 µM; in experiment [5], 0.0593 µM; in experiment [6], 0.166 µM. Moreover, the GI50 in [7] is 0.0366 µM; in experiment [8], 0.638 µM; in experiment [9], 0.0583 µM; in experiment [10] it was 0.0337 µM. For the same compound, the TGI was more than 47 µM in experiment [1]; more than 100 µM in experiment [2]; more than 100 µM in experiment [3]; more than 100 µM in experiment [4]; more than 100 µM in experiment [5]; more than 36.6 µM in experiment [6]. Besides, the TGI in experiment [7] was 0.272 µM; in experiment [8], more than 100 µM; in experiment [9] it was more than 100 µM; in [10], more than 100 µM.

In the case of `CC12CC(=O)Nc3ccccc3N1C(c1ccccc1)=NO2` (centres undefined), the TGI in [1], in experiment [2], in [4], in [5], in experiment [6] and in experiment [7] was more than 100 µM each time. The TGI in [8], in experiment [9] and in experiment [10] was more than 100 µM each time.

In the case of `NC(=O)c1cccnc1`, the GI50 in [1], in experiment [2], in experiment [3], in experiment [4], in [5] and in [6] was more than 100 µM throughout. Besides, the GI50 in experiment [7], in experiment [8] and in experiment [9] was more than 100 µM each time. Besides, the TGI in [1], in [2], in experiment [3], in [4], in [5] and in experiment [6] was more than 100 µM throughout. The TGI in [7], in experiment [8] and in experiment [9] was more than 100 µM in each case.

Consider `O=C1/C(=C\c2ccco2)Oc2ccccc21`, for which the TGI in experiment [1], in experiment [2], in experiment [3], in experiment [4], in experiment [5] and in [6] was more than 100 µM in each case. In addition, the TGI in experiment [8], in [9] and in [10] was more than 100 µM throughout.

On to `COc1ccc(C(=O)c2sc3nc(-c4ccccc4OC)ccc3c2N)cc1OC`, for which the GI50 was 11.7 µM in experiment [1]; 4.9 µM in [2]; 5.13 µM in [4]; 9.61 µM in experiment [5]; 5.05 µM in experiment [6]; 20 µM in experiment [7]. Further, the GI50 in experiment [8] was 30.6 µM; in [9] it was 7.95 µM; in experiment [10], 5.26 µM. The TGI in experiment [1], in experiment [2], in experiment [4], in [5], in experiment [6] and in [7] was more than 100 µM in each case. Also, the TGI in [8], in [9] and in experiment [10] was more than 100 µM each time.
